Consider 8 compounds from ChEMBL document CHEMBL5465560, “Selectivity Literature for EUbOPEN Chemogenomic Library” (2024).

Molecules are shown by their SMILES.

The target of assay [1] is T1, Serine/threonine-protein kinase Sgk1 (Homo sapiens) (UniProt O00141).
T1 sequence (whole entry): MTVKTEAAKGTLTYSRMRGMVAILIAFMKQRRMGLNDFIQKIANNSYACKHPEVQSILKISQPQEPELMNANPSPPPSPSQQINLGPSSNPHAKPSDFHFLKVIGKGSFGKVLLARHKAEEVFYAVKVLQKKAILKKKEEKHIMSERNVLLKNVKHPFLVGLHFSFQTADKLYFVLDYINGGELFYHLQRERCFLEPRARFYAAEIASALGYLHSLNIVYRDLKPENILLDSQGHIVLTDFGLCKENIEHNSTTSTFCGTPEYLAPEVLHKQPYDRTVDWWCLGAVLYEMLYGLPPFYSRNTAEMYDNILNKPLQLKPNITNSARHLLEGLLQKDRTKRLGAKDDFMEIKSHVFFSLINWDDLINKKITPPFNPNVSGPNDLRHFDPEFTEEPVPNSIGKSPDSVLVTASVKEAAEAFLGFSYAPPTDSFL
Briefly: Selectivity interaction (Upstate Kinase Profiler service (Millipore)) EUB0000056c SGK1. To be noted: at 1 µM.

For assay [2], the target named is T2, Serine/threonine-protein kinase D1 (Homo sapiens) (UniProt Q15139).
T2 sequence (whole entry): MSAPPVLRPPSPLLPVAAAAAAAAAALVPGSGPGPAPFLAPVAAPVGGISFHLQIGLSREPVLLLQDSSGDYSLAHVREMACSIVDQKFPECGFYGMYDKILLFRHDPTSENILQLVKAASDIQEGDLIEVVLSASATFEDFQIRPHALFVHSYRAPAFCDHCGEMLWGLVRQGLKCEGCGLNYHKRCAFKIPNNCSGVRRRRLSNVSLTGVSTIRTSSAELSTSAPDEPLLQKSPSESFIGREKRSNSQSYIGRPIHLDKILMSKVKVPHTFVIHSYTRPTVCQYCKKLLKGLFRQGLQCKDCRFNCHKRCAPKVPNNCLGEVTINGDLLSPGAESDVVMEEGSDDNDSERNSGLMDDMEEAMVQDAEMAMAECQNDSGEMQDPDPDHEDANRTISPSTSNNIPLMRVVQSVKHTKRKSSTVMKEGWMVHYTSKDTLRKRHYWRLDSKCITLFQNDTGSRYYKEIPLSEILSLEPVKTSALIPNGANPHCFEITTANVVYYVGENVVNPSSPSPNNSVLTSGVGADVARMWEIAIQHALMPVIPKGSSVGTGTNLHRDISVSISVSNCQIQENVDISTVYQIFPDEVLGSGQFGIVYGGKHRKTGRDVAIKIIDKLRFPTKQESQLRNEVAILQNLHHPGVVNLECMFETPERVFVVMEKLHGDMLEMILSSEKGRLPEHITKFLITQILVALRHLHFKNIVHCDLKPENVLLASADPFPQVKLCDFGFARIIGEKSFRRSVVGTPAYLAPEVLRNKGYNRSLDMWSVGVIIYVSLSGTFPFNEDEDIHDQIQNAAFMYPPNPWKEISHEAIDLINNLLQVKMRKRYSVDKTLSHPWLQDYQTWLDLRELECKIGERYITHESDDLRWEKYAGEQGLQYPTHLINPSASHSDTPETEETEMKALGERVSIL
The following applies: at 10 µM.

The target of assay [3] is Serine/threonine-protein kinase tousled-like 2 (Homo sapiens) (UniProt Q86UE8). To be noted: at 10 µM.
Assay [4] concerns the target Tyrosine-protein kinase receptor UFO (Homo sapiens) (UniProt P30530). As to the kind of experiment: Selectivity interaction (Millipore kinase profiler) EUB0000124b AXL. To be noted: at 10 µM.
In assay [5] the target is T3, Bone morphogenetic protein receptor type-2 (Homo sapiens) (UniProt Q13873).
T3 sequence (whole entry): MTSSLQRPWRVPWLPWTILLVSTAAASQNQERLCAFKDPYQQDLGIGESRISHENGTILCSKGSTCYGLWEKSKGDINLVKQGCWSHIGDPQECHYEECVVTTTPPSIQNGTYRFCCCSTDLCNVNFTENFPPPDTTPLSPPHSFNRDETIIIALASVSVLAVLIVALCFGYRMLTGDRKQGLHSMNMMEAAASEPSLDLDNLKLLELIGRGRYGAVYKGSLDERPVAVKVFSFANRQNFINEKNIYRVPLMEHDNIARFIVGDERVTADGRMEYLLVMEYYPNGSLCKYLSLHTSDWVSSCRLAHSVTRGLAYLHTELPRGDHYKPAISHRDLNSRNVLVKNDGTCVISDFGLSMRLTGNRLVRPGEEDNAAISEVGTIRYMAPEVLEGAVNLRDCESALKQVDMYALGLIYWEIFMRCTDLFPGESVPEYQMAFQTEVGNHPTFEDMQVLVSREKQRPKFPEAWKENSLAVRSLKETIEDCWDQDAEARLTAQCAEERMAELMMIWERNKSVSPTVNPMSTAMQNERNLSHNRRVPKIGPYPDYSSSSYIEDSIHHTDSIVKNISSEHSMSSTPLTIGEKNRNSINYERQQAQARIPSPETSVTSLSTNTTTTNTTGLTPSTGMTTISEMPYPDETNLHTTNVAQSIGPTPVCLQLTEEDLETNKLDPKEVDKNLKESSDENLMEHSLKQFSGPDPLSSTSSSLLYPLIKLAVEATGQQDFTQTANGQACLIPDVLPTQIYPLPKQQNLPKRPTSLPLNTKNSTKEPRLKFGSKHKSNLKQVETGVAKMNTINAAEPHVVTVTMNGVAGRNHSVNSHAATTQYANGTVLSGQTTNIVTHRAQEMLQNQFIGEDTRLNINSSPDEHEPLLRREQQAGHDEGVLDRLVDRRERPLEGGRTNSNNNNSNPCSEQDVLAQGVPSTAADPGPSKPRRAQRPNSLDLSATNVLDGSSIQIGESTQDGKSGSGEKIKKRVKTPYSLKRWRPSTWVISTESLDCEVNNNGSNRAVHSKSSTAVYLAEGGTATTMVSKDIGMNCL
Briefly: Selectivity interaction (KinomeScan (DiscoverX)) EUB0000666a BMPR2. The following applies: at 10 µM.

Assay [6] addresses Rho-associated protein kinase 2 (Homo sapiens, UniProt O75116). Briefly: Selectivity interaction (KinomeScan (DiscoverX)) EUB0000666a ROCK2. The following applies: at 10 µM.
Assay [7] in a line: Selectivity interaction (KinomeScan (DiscoverX)) EUB0000229b CDPK1. To be noted: at 1 µM.
For assay [8], the target named is Nucleosome-remodeling factor subunit BPTF (Homo sapiens, UniProt Q12830). As to the kind of experiment: Selectivity interaction (Human bromodomain panel (DSF assay)) EUB0000233b BPTF. For orientation: DSF heats the sample and reads unfolding from a dye or from intrinsic fluorescence.
The target of assay [9] is Maternal embryonic leucine zipper kinase (Homo sapiens) (UniProt Q14680). Briefly: Selectivity interaction (Kinase panel (DSF assay)) EUB0001559a MELK.
In assay [10] the target is MAP/microtubule affinity-regulating kinase 3 (Homo sapiens) (UniProt P27448). As to the kind of experiment: Selectivity interaction (Kinase panel (KiNativ target engagement assay in Jurkat cells)) EUB0001635a MARK3. It counts as cell-based. To be noted: at 1 µM.
Chain of MAP/microtubule affinity-regulating kinase 3 (Homo sapiens) (P27448 whole entry, looked up): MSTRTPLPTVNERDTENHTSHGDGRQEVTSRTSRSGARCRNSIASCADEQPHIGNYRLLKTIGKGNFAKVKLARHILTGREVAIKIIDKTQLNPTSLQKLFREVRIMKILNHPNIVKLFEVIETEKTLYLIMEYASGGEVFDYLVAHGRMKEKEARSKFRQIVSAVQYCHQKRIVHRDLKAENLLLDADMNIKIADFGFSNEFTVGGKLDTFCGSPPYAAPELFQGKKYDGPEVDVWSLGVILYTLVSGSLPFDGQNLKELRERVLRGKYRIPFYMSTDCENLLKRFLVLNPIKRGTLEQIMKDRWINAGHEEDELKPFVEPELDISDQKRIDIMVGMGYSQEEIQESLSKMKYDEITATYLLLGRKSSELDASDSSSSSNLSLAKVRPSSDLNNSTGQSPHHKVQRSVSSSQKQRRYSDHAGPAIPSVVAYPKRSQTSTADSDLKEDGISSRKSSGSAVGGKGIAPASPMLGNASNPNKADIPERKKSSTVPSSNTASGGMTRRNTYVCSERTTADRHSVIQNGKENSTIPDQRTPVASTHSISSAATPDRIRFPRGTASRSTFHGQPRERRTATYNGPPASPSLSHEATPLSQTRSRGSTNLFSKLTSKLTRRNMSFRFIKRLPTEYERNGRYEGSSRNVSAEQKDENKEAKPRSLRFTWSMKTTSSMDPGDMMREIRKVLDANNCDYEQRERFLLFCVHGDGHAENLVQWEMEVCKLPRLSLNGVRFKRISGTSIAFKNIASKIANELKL

Chain of Rho-associated protein kinase 2 (O75116 whole entry, looked up): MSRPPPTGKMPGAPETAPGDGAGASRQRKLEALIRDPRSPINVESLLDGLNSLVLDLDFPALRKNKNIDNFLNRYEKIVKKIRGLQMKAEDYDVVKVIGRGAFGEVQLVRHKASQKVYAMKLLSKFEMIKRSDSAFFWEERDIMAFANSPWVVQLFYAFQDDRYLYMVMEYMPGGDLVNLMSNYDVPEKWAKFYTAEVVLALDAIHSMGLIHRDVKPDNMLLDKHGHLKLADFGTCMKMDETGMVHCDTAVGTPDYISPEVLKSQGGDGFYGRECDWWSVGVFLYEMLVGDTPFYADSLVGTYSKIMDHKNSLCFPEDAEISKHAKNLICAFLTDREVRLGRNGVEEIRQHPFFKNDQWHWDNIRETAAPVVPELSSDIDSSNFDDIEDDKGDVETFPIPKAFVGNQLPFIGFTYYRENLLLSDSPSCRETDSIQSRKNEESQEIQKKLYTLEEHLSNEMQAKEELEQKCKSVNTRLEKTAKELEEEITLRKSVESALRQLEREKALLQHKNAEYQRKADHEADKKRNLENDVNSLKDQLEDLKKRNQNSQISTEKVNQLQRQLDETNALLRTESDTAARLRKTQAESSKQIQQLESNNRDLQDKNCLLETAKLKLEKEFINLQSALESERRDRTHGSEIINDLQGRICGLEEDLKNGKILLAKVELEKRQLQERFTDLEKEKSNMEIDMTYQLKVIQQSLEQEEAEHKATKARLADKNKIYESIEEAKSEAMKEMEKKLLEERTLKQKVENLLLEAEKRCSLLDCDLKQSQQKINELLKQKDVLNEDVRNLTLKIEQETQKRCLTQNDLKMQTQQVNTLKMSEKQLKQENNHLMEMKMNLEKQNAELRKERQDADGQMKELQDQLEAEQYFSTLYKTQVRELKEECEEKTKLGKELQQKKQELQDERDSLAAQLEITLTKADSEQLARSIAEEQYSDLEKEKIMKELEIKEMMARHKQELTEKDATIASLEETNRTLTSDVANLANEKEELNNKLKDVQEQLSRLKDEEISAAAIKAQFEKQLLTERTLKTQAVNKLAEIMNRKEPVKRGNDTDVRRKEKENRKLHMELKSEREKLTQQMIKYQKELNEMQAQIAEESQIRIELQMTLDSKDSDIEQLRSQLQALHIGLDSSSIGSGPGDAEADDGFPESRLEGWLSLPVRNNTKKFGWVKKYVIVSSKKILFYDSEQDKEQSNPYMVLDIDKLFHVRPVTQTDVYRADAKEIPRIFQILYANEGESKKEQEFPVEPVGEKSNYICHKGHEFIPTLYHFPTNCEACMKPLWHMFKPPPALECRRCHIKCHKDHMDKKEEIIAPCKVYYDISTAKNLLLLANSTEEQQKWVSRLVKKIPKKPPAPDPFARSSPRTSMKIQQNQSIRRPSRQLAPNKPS
Chain of Serine/threonine-protein kinase tousled-like 2 (Homo sapiens) (Q86UE8 whole entry, looked up): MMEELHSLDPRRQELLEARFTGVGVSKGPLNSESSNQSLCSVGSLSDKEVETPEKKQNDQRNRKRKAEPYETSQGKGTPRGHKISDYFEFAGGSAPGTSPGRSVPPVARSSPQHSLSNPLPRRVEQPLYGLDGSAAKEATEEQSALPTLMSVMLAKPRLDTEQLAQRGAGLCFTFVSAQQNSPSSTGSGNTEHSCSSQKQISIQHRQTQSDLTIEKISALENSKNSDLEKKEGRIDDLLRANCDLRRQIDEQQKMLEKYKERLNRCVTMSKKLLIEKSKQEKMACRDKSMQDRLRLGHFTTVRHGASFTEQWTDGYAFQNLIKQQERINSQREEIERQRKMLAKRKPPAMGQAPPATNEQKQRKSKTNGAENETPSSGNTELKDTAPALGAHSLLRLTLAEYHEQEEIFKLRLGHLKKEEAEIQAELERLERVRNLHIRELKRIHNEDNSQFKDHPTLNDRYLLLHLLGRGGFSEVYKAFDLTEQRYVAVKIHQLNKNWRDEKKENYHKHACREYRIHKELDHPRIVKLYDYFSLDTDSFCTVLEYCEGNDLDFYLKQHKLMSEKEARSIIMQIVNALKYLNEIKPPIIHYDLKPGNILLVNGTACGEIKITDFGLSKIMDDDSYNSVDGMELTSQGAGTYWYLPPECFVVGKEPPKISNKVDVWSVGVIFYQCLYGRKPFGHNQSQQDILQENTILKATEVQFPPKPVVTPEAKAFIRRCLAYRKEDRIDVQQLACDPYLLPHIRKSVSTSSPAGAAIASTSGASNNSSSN
Chain of Maternal embryonic leucine zipper kinase (Homo sapiens) (Q14680 whole entry, looked up): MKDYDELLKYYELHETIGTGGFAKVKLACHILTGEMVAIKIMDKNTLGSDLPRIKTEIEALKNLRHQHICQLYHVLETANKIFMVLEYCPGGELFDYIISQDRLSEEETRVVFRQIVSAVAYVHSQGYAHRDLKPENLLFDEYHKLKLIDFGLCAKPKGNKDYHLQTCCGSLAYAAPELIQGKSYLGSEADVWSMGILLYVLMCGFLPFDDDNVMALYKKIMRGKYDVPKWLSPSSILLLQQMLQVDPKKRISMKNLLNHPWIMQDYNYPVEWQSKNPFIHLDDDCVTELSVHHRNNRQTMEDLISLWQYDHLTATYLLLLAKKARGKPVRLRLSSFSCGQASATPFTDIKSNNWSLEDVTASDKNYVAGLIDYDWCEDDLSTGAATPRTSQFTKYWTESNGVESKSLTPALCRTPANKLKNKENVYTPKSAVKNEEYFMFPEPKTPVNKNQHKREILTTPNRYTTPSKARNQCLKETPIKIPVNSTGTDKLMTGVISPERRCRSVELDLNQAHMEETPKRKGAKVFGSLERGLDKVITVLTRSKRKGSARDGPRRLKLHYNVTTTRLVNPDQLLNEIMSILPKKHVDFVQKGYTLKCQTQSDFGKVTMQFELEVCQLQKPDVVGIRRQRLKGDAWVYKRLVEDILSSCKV
Chain of Tyrosine-protein kinase receptor UFO (Homo sapiens) (P30530 whole entry): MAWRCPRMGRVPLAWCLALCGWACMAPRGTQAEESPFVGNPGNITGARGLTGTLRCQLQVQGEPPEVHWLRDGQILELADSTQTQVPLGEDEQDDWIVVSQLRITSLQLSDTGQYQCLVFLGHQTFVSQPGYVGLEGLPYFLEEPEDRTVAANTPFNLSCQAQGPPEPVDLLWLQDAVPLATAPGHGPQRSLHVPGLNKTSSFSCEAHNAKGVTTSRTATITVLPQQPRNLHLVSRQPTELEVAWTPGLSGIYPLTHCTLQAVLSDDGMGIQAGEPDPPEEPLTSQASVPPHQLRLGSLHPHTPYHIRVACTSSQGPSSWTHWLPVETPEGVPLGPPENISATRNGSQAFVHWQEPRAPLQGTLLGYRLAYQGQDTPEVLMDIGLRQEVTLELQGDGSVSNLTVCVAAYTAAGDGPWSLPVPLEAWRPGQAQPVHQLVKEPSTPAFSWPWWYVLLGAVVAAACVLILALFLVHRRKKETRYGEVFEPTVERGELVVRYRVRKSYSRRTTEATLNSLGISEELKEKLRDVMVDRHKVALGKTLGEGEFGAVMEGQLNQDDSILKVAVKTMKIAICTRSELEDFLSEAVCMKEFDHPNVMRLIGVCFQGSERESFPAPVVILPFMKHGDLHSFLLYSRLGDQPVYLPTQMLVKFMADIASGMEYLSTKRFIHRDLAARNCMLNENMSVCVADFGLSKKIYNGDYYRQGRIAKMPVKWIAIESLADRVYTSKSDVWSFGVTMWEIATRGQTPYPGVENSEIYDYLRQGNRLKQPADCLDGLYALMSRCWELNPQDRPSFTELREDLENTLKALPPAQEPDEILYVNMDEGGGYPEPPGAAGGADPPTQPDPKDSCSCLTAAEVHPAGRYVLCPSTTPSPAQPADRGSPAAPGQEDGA

`Cc1ccc(-c2ccc3c(ccc4sc5c(c43)NC[C@@H](C)NC5=O)n2)cn1`: the % of inhibition in assay [1] came to 4%. Consider `CCN(CC)CCCCNc1ncc2cc(-c3cc(OC)cc(OC)c3)c(NC(=O)NC(C)(C)C)nc2n1`, for which the % of control in [2] and in assay [3] was 100% throughout. As for `CC(=O)Nc1cccc(-n2c(=O)n(C3CC3)c(=O)c3c(Nc4ccc(I)cc4F)n(C)c(=O)c(C)c32)c1`, the % of control in [4] was determined as 114%. On to `O=C(NOC[C@H](O)CO)c1ccc(F)c(F)c1Nc1ccc(I)cc1F`, for which the % of control was 81% in [5] and 100% in [6]. As for `COc1cc(N(C)c2ccnc3ccc(C(F)(F)F)cc23)cc(OC)c1OC`, the % binding in assay [7] stood at 74%.

In assay [8], `CN(C)CCCOc1ccc(-c2cc(NCCCn3cccn3)nc(S(C)(=O)=O)n2)cc1` displayed a dTM of 3.8 K. For `CN(C(=O)c1cnn2cccnc12)c1cc2c(cc1N1CCOCC1)C(=O)N(C[C@@H](F)C(C)(C)O)C2`, the dTM in assay [9] is -0.3 K. Take `C=CC(=O)Nc1ccc(C(=O)Nc2[nH]nc3c2CN(C(=O)N[C@H](CN(C)C)c2ccccc2)C3(C)C)cc1`: the % of engagement in assay [10] (Selectivity number of off-targets 0.0, Selectivity number of targets 233.0, Source Knowledge https://www.sciencedirect.com/science/article/pii/S2451945619300674?via%3Dihub) was found to be 16.4%; in [10], 19.1%.
